Assay results: the NIST ThermoML archive (doi:10.1021/je900807v)
Numbers after ± are expanded uncertainties. Each block holds one compound with its values, some of them ahead of it.

How the values were obtained:
[1] = refractive index (Na D-line) (dimensionless); details: 298.15 K; 101.33 kPa; Liquid; Standard Abbe refractometry
[2] = 298.15 K, 101.33 kPa, Liquid
[3] = xn = mol fraction of the nth substance listed; details: 298.15 K, 101 kPa, Liquid

- refractive index [1]: 1.50591 ± 0.0007
- mass density ([2]; Vibrating tube method): 1219.61 ± 0.42 kg/m3
Compound: CCOS(=O)(=O)[O-].CC[n+]1cccc(C)c1 [1-ethyl-3-methylpyridinium ethylsulfate]

- refractive index [1]: 1.49774 ± 0.00068
- mass density [2]: 873.57 ± 0.17 kg/m3
Compound: c1ccccc1 [benzene]

- mass density ([3]; x2 = 0): 873.57 ± 0.17 kg/m3
Compound: c1ccccc1 [benzene] + CC1CCCCC1

- refractive index [1]: 1.49304 ± 0.00068
- mass density [2]: 862.51 ± 0.18 kg/m3
Compound: CCc1ccccc1 [ethylbenzene]

- mass density ([3]; x2 = 0): 862.51 ± 0.18 kg/m3
Compound: CCc1ccccc1 [ethylbenzene] + CC1CCCCC1

Compound: CC1CCCCC1 [methylcyclohexane]
- refractive index [1]: 1.42062 ± 0.0007
- mass density [2]: 765.02 ± 0.36 kg/m3

Compound: CC1CCCCC1 [methylcyclohexane] + CCc1ccccc1
- mass density ([3]; x1 = 0.0494): 857.22 ± 0.19 kg/m3
- mass density ([3]; x1 = 0.0975): 852.13 ± 0.19 kg/m3
- mass density ([3]; x1 = 0.1983): 841.55 ± 0.21 kg/m3
- mass density ([3]; x1 = 0.2981): 831.2 ± 0.23 kg/m3
- mass density ([3]; x1 = 0.4008): 820.93 ± 0.25 kg/m3
- mass density ([3]; x1 = 0.5005): 811.01 ± 0.26 kg/m3
- mass density ([3]; x1 = 0.6001): 801.41 ± 0.28 kg/m3
- mass density ([3]; x1 = 0.7006): 792.06 ± 0.3 kg/m3
- mass density ([3]; x1 = 0.7952): 783.15 ± 0.32 kg/m3
- mass density ([3]; x1 = 0.8949): 774.23 ± 0.34 kg/m3
- mass density ([3]; x1 = 0.9495): 769.34 ± 0.35 kg/m3
- mass density ([3]; x1 = 1): 765.02 ± 0.36 kg/m3

Compound: CC1CCCCC1 [methylcyclohexane] + Cc1ccccc1
- mass density ([3]; x1 = 0.05): 855.9 ± 0.18 kg/m3
- mass density ([3]; x1 = 0.0998): 849.91 ± 0.19 kg/m3
- mass density ([3]; x1 = 0.198): 838.24 ± 0.21 kg/m3
- mass density ([3]; x1 = 0.2951): 827.41 ± 0.22 kg/m3
- mass density ([3]; x1 = 0.3968): 816.83 ± 0.24 kg/m3
- mass density ([3]; x1 = 0.4959): 806.9 ± 0.26 kg/m3
- mass density ([3]; x1 = 0.5973): 797.45 ± 0.28 kg/m3
- mass density ([3]; x1 = 0.697): 788.64 ± 0.3 kg/m3
- mass density ([3]; x1 = 0.7954): 780.42 ± 0.32 kg/m3
- mass density ([3]; x1 = 0.8932): 772.71 ± 0.34 kg/m3
- mass density ([3]; x1 = 0.9487): 768.66 ± 0.35 kg/m3
- mass density ([3]; x1 = 1): 765.02 ± 0.36 kg/m3

Compound: CC1CCCCC1 [methylcyclohexane] + c1ccccc1
- mass density ([3]; x1 = 0.0504): 865.01 ± 0.18 kg/m3
- mass density ([3]; x1 = 0.099): 857.13 ± 0.19 kg/m3
- mass density ([3]; x1 = 0.1998): 841.92 ± 0.2 kg/m3
- mass density ([3]; x1 = 0.2978): 829.01 ± 0.22 kg/m3
- mass density ([3]; x1 = 0.3991): 816.54 ± 0.24 kg/m3
- mass density ([3]; x1 = 0.4993): 805.76 ± 0.26 kg/m3
- mass density ([3]; x1 = 0.598): 796.03 ± 0.28 kg/m3
- mass density ([3]; x1 = 0.6991): 787.22 ± 0.3 kg/m3
- mass density ([3]; x1 = 0.7981): 779.31 ± 0.32 kg/m3
- mass density ([3]; x1 = 0.8961): 772.04 ± 0.34 kg/m3
- mass density ([3]; x1 = 0.9523): 768.25 ± 0.35 kg/m3
- mass density ([3]; x1 = 1): 765.02 ± 0.36 kg/m3

Compound: Cc1ccccc1 [toluene]
- refractive index [1]: 1.49399 ± 0.00068
- mass density [2]: 862.17 ± 0.18 kg/m3

Compound: Cc1ccccc1 [toluene] + CC1CCCCC1
- mass density ([3]; x2 = 0): 862.17 ± 0.18 kg/m3
